Measured values published in patent US6989387B2, “Nitro and amino substituted topoisomerase agents” (Rutgers, The State University of New Jersey, priority 2002, dated 2006).
Like-named read-outs stand apart in the source and are kept apart here.

Key:
human topoisomerase I = biological target: T1, human topoisomerase I (Homo sapiens, UniProt P11387); test: Test A: topoisomerase I-mediated DNA cleavage assay; type: biochemical; settings: relative effective concentration, relative to topotecan = 1, producing the same cleavage of plasmid DNA in presence of human TOP1
T1 construct: unnamed fusion partner (recombinant fusion protein, T7 expression system); made in house; host or cells: E. coli
T1 sequence (P11387 1-765): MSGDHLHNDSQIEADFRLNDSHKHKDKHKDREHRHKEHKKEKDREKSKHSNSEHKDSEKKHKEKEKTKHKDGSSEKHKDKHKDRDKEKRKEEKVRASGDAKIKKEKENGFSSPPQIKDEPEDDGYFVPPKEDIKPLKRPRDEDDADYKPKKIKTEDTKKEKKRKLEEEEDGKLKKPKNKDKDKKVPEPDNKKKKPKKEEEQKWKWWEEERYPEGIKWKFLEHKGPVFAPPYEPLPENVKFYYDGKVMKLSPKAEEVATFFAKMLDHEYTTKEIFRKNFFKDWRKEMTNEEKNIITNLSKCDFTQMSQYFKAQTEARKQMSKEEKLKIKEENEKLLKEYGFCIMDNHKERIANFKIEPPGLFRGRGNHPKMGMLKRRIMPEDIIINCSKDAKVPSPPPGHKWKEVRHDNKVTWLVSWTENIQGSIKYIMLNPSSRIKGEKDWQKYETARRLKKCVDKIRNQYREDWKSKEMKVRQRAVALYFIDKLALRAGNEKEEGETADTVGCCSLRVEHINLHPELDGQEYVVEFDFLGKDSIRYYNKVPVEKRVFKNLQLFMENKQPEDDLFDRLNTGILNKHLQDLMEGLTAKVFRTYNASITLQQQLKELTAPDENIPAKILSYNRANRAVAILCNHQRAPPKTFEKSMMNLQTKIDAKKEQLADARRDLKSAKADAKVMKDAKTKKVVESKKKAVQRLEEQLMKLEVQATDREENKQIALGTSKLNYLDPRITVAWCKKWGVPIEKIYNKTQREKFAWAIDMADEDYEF
Description: Test A. Topoisomerase-Mediated DNA Cleavage Assays
Human topoisomerase I was expressed in E. Coli and isolated as a recombinant fusion protein using a T7 expression system as described by Gatto, B., et al., Cancer Res. 1996, 56, 2795–2800. Plasmid YepG was purified by the alkali lysis method followed by phenol deproteination and CsCl/ethidium isopycnic centrifugation method as described by Maniatis, T., et al., J. Molecular Cloning, a Laboratory Manual; Cold Spring Harbor Laboratory: Cold Spring Harbor, N.Y. 1982; pp 149–185. The end-labeling of the plasmid was accomplished by digestion with a restriction enzyme followed by end-filling with Klenow polymerase as previously described by Tewey, K. M., et al., Science 1984, 226, 466–468. The cleavage assays were performed as previously reported (see Gatto, B., et al., Cancer Res. 1996, 56, 2795–2800; and Wang, H., et al., Biochemistry 2001, 40; 3316–3323). The drug and the DNA in presence of topoisomerase I was incubated for 30 minutes at 37° C. The reactions were terminated by the addition of 5 μl of 5% SDS and 1 mg/ml […] with an additional 1 hour of incubation at 37° C. Samples were then alkali denatured by the addition of NaOH, EDTA, sucrose, and bromophenol blue to final concentrations of 75 mM, 2.5%, and 0.05 mg/ml, respectively, prior to loading onto a neutral agarose gel. After development of the gels, typically 24-hour exposure was used to obtain autoradiograms outlining the extent of DNA fragmentation.

RPMI8402 cells = test: Test B: MTT-microtiter plate tetrazolinium cytotoxicity assay, RPMI8402; type: cell-based, human; settings: RPMI 8402, 96 h, read-out: Cytotoxicity (IC50; μM) RPMI8402
Description: (§1) The cytotoxicity was determined using the MTT-microtiter plate tetrazolinium cytotoxicity assay (MTA—See Mosmann, T., J. Immunol. Methods 1983, 65, 55–63; Carmichael, J., et al., Cancer Res. 1987, 47, 936–942; and Denizot, F., et al., J. Immunol. Methods 1986, 89, 271–277). […] The cytotoxicity assay was performed using 96-well microtiter plates. Cells were grown in suspension at 37° C. in 5% CO2 and maintained by regular passage in RPMI medium supplemented with 10% heat- inactivated fetal bovine serum, L-glutamine (2 mM), penicillin (100 U/mL), and streptomycin (0.1 mg/mL). […] For determination of IC50, cells were exposed continuously for 4 days to varying concentrations of drug, and MTT assays were performed at the end of the fourth day. […] All assays were performed at least twice in 6 replicate wells.

CPT-K5 cells = test: Test B: MTT-microtiter plate tetrazolinium cytotoxicity assay, CPT-K5; type: cell-based; settings: Homo sapiens, CPT-K5, 96 h, read-out: Cytotoxicity (IC50; μM) CPT-K5
Description: as §1

| TOP1-mediated DNA Cleavage (REC) (human topoisomerase I) | melting point [°C] | Structure (SMILES) | IC50 (RPMI8402 cells; human lymphoblast RPMI8402, 4 days of continuous drug exposure, MTT) [µM] | IC50 (RPMI8402 cells; Homo sapiens) [µM] | IC50 (CPT-K5 cells) [µM] |
| --- | --- | --- | --- | --- | --- |
| 6 | – | CN(C)CCn1c(=O)c2ccccc2c2cnc3cc4c(cc3c21)OCO4 [Compound 3, 2,3-Methylenedioxy-5-[2-(N,N-dimethylamino)ethyl]-5H-dibenzo[c,h]1,6-naphthyridin-6-one, reference compound] | – | 0.06 | 0.95 |
| 0.2 | 219 to 220 | CN(C)CCn1c(=O)c2cc([N+](=O)[O-])ccc2c2cnc3cc4c(cc3c21)OCO4 [Compound 4a, 8-Nitro-2,3-methylenedioxy-5-[2-(N,N-dimethylamino)ethyl]-5H-dibenzo[c,h][1,6]naphthyridin-6-one] | – | 0.003 | 0.33 |
| 8.0 | 245 to 246 | CN(C)CCn1c(=O)c2cc(N)ccc2c2cnc3cc4c(cc3c21)OCO4 [Compound 4b, 8-Amino-2,3-methylenedioxy-5-[2-(N,N-dimethylamino)ethyl]-5H-dibenzo[c,h][1,6]naphthyridin-6-one] | – | 0.08 | 0.38 |
| 0.1 | 258 to 259 | CN(C)CCn1c(=O)c2ccc([N+](=O)[O-])cc2c2cnc3cc4c(cc3c21)OCO4 [Compound 5a, 9-Nitro-2,3-methylenedioxy-5-[2-(N,N-Dimethylamino)Ethyl]-5H-dibenzo[c,h][1,6]naphthyridin-6-one] | – | 0.002 | 2.8 |
| 0.5 | 300 to 301 | CN(C)CCn1c(=O)c2ccc(N)cc2c2cnc3cc4c(cc3c21)OCO4 [Compound 5b, 9-Amino-2,3-methylenedioxy-5-[2-(N,N-dimethylamino)ethyl]-5H-dibenzo[c,h][1,6]naphthyridin-6-one] | – | 0.025 | 1 |
| 1000 | 189 to 190 | CN(C)CCn1c(=O)c2cccc([N+](=O)[O-])c2c2cnc3cc4c(cc3c21)OCO4 [Compound 6a, 10-Nitro-2,3-methylenedioxy-5-[2-(N,N-dimethylamino)Ethyl]-5H-dibenzo[c,h][1,6]naphthyridin-6-one] | – | 4.8 | > 10 |
| 15 | 223 to 224 | CN(C)CCn1c(=O)c2cccc(N)c2c2cnc3cc4c(cc3c21)OCO4 [Compound 6b, 10-Amino-2,3-methylenedioxy-5-[2-(N,N-dimethylamino)ethyl]-5H-dibenzo[c,h][1,6]naphthyridin-6-one] | – | 0.34 | 3.2 |
| 1 | – | CC[C@@]1(O)C(=O)OCc2c1cc1n(c2=O)Cc2cc3c(CN(C)C)c(O)ccc3nc2-1 [Topotecan, reference compound] | – | 0.012 | > 50 |
| >1000 | – | COc1cc([C@@H]2c3cc4c(cc3[C@@H](O[C@@H]3O[C@@H]5CO[C@@H](c6cccs6)O[C@H]5[C@H](O)[C@H]3O)[C@H]3COC(=O)[C@H]23)OCO4)cc(OC)c1O [VM-26, reference compound] | – | 0.22 | 0.28 |

| Structure (SMILES) | TOP1-mediated DNA Cleavage (REC) (human topoisomerase I) | melting point [°C] | IC50 (RPMI8402 cells; human lymphoblast RPMI8402, 4 days of continuous drug exposure, MTT) [µM] | IC50 (RPMI8402 cells; Homo sapiens) [µM] | IC50 (CPT-K5 cells) [µM] |
| --- | --- | --- | --- | --- | --- |
| CC[C@@]1(O)C(=O)OCc2c1cc1n(c2=O)Cc2cc3ccccc3nc2-1 [Camptothecin, reference compound] | 0.5 | – | 0.005 | – | – |
